Paper PMC7653338 (Beilstein Journal of Organic Chemistry, 2020)
“Also recorded” adds a separate entry of the source. Residues, ends and D or L forms follow the SMILES beside them. *: point of attachment. X1 = O=C(Cc1ccc2ccccc2c1)N[C@H](Cc1ccccc1)C(=O)N[C@H](Cc1ccccc1)C(=O)N[C@H](CCCCN*)C(=O)N[C@H](Cc1ccc(O)cc1)C(=O)O

Experiments:
HeLa cells = test: MTT cell viability assay, HeLa cells; type: cell-based; conditions: 400 μM, three days, absorbance 595 nm, three independent experiments
Method: (§1) We investigated the cell compatibility of 1 and 2 by incubation with two kinds of mammalian cells, HeLa and Saos-2 cells, using the 3-(4,5-dimethylthiazol-2-yl)-2,5-diphenyl tetrazolium bromide (MTT) assay. The cell viability of HeLa and Soas-2 cells after being incubated with 1 (400 μM) for three days are about 90% and 80%, respectively. […] To confirm that 1 and 2 convert from micelles to nanofibers in a cellular environment, we incubated of 1 or 2 at 500 μM in the lysates of HeLa cells (Figure S5, Supporting Information File 1) and examined the amount of each component in % by LC–MS. After 24 h incubation, 44% of 1 or 39% of 2, was cleaved to Nap-ffky, which self-assembles as part for the nanofibers. […] Then, we used confocal laser scanning microscopy (CLSM) to examine whether these compounds deliver RPE into HeLa cells. […]
(§2) Circular dichroism (CD) analysis : CD spectra were recorded ([…]) using a JASCO 810 spectrometer under a nitrogen atmosphere. […] The percentage of the secondary structures in different samples was calculated by the programs provided in DichroWeb. […]
(§3) reaction and to dissolve the purple formazan. After incubation of the cells at 37 ° C overnight, the absorbance of each well at 595 nm was measured in a multimode microplate reader. […]

Saos-2 cells = test: MTT cell viability assay, Saos-2 cells; type: cell-based; conditions: 400 μM, three days, absorbance 595 nm, three independent experiments
Method: as §1, §2, §3

[1] = type: in vitro ADME; conditions: 500 μM peptide in HeLa cell lysate, 24 h, 37 °C, lysis buffer pH 7.4, LC-MS
Method: as §1, with “cells. After mixing R-phycoerythrin (RPE), a red fluorescent protein, with 1 or 2 at different concentrations, we incubated the mixtures with HeLa cells for 2 h and 4 h.” for “cells.”
reaction and to dissolve the purple formazan. After incubation of the cells at 37 ° C overnight, the absorbance of each well at 595 nm was measured in a multimode microplate reader. Three independent experiments were performed, with an average ± […]
Confocal microscopy: Cells in the exponential growth phase were seeded in a glass-bottomed culture chamber at 1 × 10^5 cells/well. […]

proteinase K [2] = molecular target: proteinase K (Parengyodontium album, UniProt P06873); test: Enzymatic proteolysis catalyzed by proteinase K, LC-MS; type: in vitro ADME; conditions: for proteolytic products with proteinase K: 5 mM peptide, proteinase K 5 U/mL, Tris-HCl buffer pH 7.0, 24 h, LC-MS
proteinase K (Parengyodontium album, UniProt P06873), sequence (P06873 106-384, species assumed): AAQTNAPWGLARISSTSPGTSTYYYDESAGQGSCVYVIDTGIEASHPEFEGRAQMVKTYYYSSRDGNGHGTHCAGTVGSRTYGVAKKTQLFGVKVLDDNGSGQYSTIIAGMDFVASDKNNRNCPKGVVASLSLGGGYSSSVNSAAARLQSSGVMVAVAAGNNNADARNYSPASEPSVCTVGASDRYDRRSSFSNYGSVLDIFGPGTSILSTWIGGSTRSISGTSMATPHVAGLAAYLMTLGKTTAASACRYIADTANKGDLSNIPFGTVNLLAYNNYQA
Method: After having obtained the peptides 1 and 2, we examined the enzymatic proteolysis of 1 and 2 catalyzed by proteinase K. We added proteinase K, a powerful endopeptidase, to the solutions of 1 and 2 (5 mM, pH 7.0, in Tris-HCl buffer). […] Then, we conducted a time-dependent CD analysis to examine the change of the secondary structural conformations of 1 and 2 during the proteolysis catalyzed by proteinase K in Tris-HCl buffer at pH 7.0. […] During the transition from micelles to fibrils, the CD signal at 210 nm reverses the sign, likely due to the self-assembly of Nap-ffky to helical fibrils. Analyzing the CD spectra by the Contin-LL analysis program, we estimated the percentage of each conformation, further confirming the trend and the assignment of the dominant conformation. As shown in Figure 2C and Figure 2F, the initial state of peptide 1 has more β-strand conformations than that of peptide 2. With increasing proteolysis time, the CD spectra indicate that the cleavage of 1 or 2 results in more assemblies that favor β-strand conformations (Figure 2D and Figure 2E). In addition, the ratio of the β-strand conformation resulted from the cleavage of 1 being slightly faster than that of 2.
Figure 2 A) LC–MS spectrum of the proteolytic products after 1 (5 mM) was incubated with proteinase K (5 U/mL) for 24 h. B) Time-dependent circular dichroism (CD) spectra of 1 incubated with proteinase K in Tris-HCl buffer at pH 7.0. C) CD simulation of the mixture from the spectra in B. D) LC–MS spectrum of the proteolytic products after 2 (5 mM) was incubated with proteinase K (5 U/mL) for 24 h. E) Time-dependent CD spectra of 2 incubated with proteinase K in Tris-HCl buffer at pH 7.0. F) CD simulation of the mixture from the spectra in E.

enterokinase (ENTK) [3] = molecular target: enterokinase (ENTK) (Homo sapiens, UniProt P98073); test: Proteolysis by enterokinase (ENTK); type: in vitro ADME; conditions: Figures S3 and S4
enterokinase (ENTK) (Homo sapiens, UniProt P98073), sequence (P98073 whole entry, species assumed): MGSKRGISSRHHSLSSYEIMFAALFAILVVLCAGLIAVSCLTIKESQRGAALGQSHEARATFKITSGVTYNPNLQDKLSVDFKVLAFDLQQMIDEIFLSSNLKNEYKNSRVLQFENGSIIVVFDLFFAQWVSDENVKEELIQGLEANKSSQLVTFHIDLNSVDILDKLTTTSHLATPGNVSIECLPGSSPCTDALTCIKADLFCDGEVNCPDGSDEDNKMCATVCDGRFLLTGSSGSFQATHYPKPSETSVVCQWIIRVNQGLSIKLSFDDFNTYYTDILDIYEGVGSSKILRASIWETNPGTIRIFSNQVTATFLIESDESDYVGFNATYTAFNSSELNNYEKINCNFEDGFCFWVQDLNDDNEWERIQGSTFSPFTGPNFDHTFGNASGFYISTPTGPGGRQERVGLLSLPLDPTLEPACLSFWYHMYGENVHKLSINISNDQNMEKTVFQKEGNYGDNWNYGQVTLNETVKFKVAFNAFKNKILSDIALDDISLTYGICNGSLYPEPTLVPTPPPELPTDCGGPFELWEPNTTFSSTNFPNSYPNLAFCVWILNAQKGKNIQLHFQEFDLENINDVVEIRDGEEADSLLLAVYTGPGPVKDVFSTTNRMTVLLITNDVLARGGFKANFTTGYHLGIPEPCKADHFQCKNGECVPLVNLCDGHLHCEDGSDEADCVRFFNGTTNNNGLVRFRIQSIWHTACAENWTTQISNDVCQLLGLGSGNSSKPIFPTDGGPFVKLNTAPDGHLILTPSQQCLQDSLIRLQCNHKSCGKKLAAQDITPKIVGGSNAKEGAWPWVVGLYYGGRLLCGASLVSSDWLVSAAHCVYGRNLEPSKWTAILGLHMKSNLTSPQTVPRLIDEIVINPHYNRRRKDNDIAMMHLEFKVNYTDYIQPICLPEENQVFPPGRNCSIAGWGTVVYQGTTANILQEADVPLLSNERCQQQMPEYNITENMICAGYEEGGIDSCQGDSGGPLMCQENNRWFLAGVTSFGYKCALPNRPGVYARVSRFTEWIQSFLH
Text: In addition, unlike the FLAG-tag-based branched peptides, 1 and 2 are proteolytic-resistant to enterokinase (ENTK, Figures S3 and S4, Supporting Information File 1).

enterokinase (ENTK) [4] = test: enterokinase (ENTK)
proteinase K [5] = test: proteinase K (5 U/mL) in Tris-HCl buffer, pH 7.0; conditions: up to 24 h
[6] = lysates of HeLa cells, in 10 mmol of lysis buffer at pH 7.4; conditions: 37 °C, up to 24 h

Row | not cleaved (enterokinase (ENTK) [4]) | fragment found [6] | Compound | cell viability (HeLa cells) | cell viability (Saos-2 cells) [%] | amount cleaved to Nap-ffky [1] [%] | proteolytic products with proteinase K (proteinase K [2]) | resistance to proteolysis by enterokinase (enterokinase (ENTK) [3]) | stability towards the proteolysis (acetylated versus non-acetylated branch) (proteinase K [2]; proteinase K, compared with 1) | fragment found (proteinase K [5])
1 | – | – | CC[C@H](C)[C@H](NC(=O)[C@H](CC(C)C)NC(=O)[C@H](CC(C)C)NC(=O)[C@H](CC(=O)O)NC(=O)[C@H](CC(=O)O)NC(=O)[C@H](CC(=O)O)NC(=O)[C@H](CCC(=O)O)NC(=O)[C@@H](N)CC(=O)O)C(=O)NCC(=O)NCCCC[C@@H](NC(=O)[C@@H](Cc1ccccc1)NC(=O)[C@@H](Cc1ccccc1)NC(=O)Cc1ccc2ccccc2c1)C(=O)N[C@H](Cc1ccc(O)cc1)C(=O)O [compound 1, Nap-ffk(NH2-DEDDDLLIG)y] (H-DEDDDLLIG-X1) | about 90% | ~80 | 44 | undergoes proteolytic cleavage to form DEDDDLLIG and Nap-ffky | proteolytic-resistant | – | –
2 | – | – | CC[C@H](C)[C@H](NC(=O)[C@H](CC(C)C)NC(=O)[C@H](CC(C)C)NC(=O)[C@H](CC(=O)O)NC(=O)[C@H](CC(=O)O)NC(=O)[C@H](CC(=O)O)NC(=O)[C@H](CCC(=O)O)NC(=O)[C@H](CC(=O)O)NC(C)=O)C(=O)NCC(=O)NCCCC[C@@H](NC(=O)[C@@H](Cc1ccccc1)NC(=O)[C@@H](Cc1ccccc1)NC(=O)Cc1ccc2ccccc2c1)C(=O)N[C@H](Cc1ccc(O)cc1)C(=O)O [compound 2, Nap-ffk(AcNH-DEDDDLLIG)y] (Ac-DEDDDLLIG-X1) | – | – | 39 | proteolytically hydrolyzes into four parts, including DEDDDLLIG, DEDDDLL, DEDDDL, and Nap-ffky | proteolytic-resistant | enhanced stability towards the proteolysis | –
3 | proteolytic-resistant to enterokinase | Nap-ffky, 24 h | Nap-ffk(AcNH-DEDDDLLIG)y | – | – | – | – | – | – | Nap-ffky, 24 h
4 | proteolytic-resistant to enterokinase | Nap-ffky, 24 h | Nap-ffk(NH2-DEDDDLLIG)y | – | – | – | – | – | – | DEDDDLLIG, 24 h; also recorded: Nap-ffky, 24 h
